Test results as given in patent US20220409593A1 (ARKUDA THERAPEUTICS, priority 2019, published 2022).

System: secreted mouse PGRN
Test: progranulin induction cellular assay (PGRN assay, ELISA-based readout)
Settings: progranulin secreted into cell culture medium, cells named in method: mouse primary microglia, primary cortical neurons, BV-2
Experimental: Cellular Assays: To measure the efficacy of compounds, a progranulin induction cellular assay in mouse primary microglia (pMG), primary cortical neurons, and BV-2 cell lines is used. BV-2 cells are split the day before plating into a 96well plate format at approximately 80%. Cells should be plated the day before and allowed for 1 hour attachment period and for 16 hour incubation. Levels of progranulin secreted into the cell culture medium or retained in the cell lysate can be quantified using an ELISA-based readout and measurement of secreted mouse PGRN in the medium was assessed by the methodology published by Ghidoni et al. 2012. Standard ELISA kits to measure PGRN are available from vendors such as Adipogen, R&D, and Biovendor.
Table D below presents the results of a PGRN assay as described above.

Structure (SMILES) | EC50 (Mus musculus) [nM] | EC50 [nM]
CN1CCC[C@H]([C@@H]2CN=C(N3CCc4ccccc4[C@@H]3c3ccc(F)cc3)O2)C1 (single isomer, unassigned) [Compound 3152] | 406 | 
CN1CCC[C@H]([C@H]2CN=C(N3CCc4ccccc4[C@@H]3c3ccc(F)cc3)O2)C1 (single isomer, unassigned) [Compound 3153] | 940 | 
Fc1ccc([C@H]2c3ccccc3CCN2C2=NC[C@@H](C3(F)CNC3)O2)cc1 (single isomer, unassigned) [Compound 3154] | 132 | 
Fc1ccc([C@H]2c3ccccc3CCN2C2=NC[C@H](C3(F)CNC3)O2)cc1 (single isomer, unassigned) [Compound 3155] | 192 | 
Fc1ccc([C@H]2c3ccccc3CCN2C2=N[C@@H](C3(F)CNC3)CO2)cc1 (single isomer, unassigned) [Compound 3156] | 99.8 | 
Fc1ccc([C@H]2c3ccccc3CCN2C2=N[C@H](C3(F)CNC3)CO2)cc1 (single isomer, unassigned) [Compound 3157] | 77.7 | 
CN(C)[C@H]1C[C@]2(CN=C(N3CCc4ccccc4[C@@H]3c3ccc(F)cc3)O2)C1 (single isomer, unassigned) [Compound 3158] | 3580 | 
CN(C)[C@H]1C[C@@]2(CN=C(N3CCc4ccccc4[C@@H]3c3ccc(F)cc3)O2)C1 (single isomer, unassigned) [Compound 3159] | 209 | 
NC[C@H]1C[C@@]2(CN=C(N3CCc4ccccc4[C@@H]3c3ccc(F)cc3)O2)C1 (single isomer, unassigned) [Compound 3160] | 993 | 
NC[C@H]1C[C@]2(CN=C(N3CCc4ccccc4[C@@H]3c3ccc(F)cc3)O2)C1 (single isomer, unassigned) [Compound 3161] | 206 | 
CN(C)[C@@H]1CC[C@@]2(CN=C(N3CCc4ccccc4[C@@H]3c3ccc(F)cc3)O2)C1 (single isomer, unassigned) [Compound 3163] | 237 | 
CN(C)[C@@H]1CC[C@]2(CN=C(N3CCc4ccccc4[C@@H]3c3ccc(F)cc3)O2)C1 (single isomer, unassigned) [Compound 3164] | 137 | 
c1ccc([C@H]2c3ccccc3CCN2C2=NC[C@@]3(CCNC3)O2)cc1 (single isomer, unassigned) [Compound 3165] | 118 | 
c1ccc([C@H]2c3ccccc3CCN2C2=NC[C@]3(CCNC3)O2)cc1 (single isomer, unassigned) [Compound 3166] | 163 | 
Fc1ccc([C@H]2c3ccccc3CCN2C2=NC[C@]3(CNC[C@@H]3F)O2)cc1 (single isomer, unassigned) [Compound 3169] | 200 | 
Fc1ccc([C@H]2c3ccccc3CCN2C2=NC[C@@]3(CNC[C@@H]3F)O2)cc1 (single isomer, unassigned) [Compound 3170] | 538 | 
Fc1cccc([C@H]2c3ccccc3CCN2C2=NC[C@@]3(CN4CCC3CC4)O2)c1 (stereo in doubt) [Compound 3020] | 9980 | 
Fc1cccc([C@H]2c3ccccc3CCN2C2=NC[C@]3(CN4CCC3CC4)O2)c1 (stereo in doubt) [Compound 3021] | > 10000 | 
Fc1cccc([C@@H]2c3ccccc3CCN2C2=NC[C@@]3(CN4CCC3CC4)O2)c1 (stereo in doubt) [Compound 3022] | 1490 | 
Fc1cccc([C@@H]2c3ccccc3CCN2C2=NC[C@]3(CN4CCC3CC4)O2)c1 (stereo in doubt) [Compound 3023] | 2170 | 
Fc1ccc([C@H]2c3ccccc3CCN2C2=NC[C@@]3(CN4CCC3CC4)O2)cc1F (stereo in doubt) [Compound 3024] | 3960 | 
Fc1ccc([C@H]2c3ccccc3CCN2C2=NC[C@]3(CN4CCC3CC4)O2)cc1F (stereo in doubt) [Compound 3025] | 4060 | 
Fc1ccc([C@@H]2c3ccccc3CCN2C2=NC[C@@]3(CN4CCC3CC4)O2)cc1F (stereo in doubt) [Compound 3026] | 310 | 
Fc1ccc([C@@H]2c3ccccc3CCN2C2=NC[C@]3(CN4CCC3CC4)O2)cc1F (stereo in doubt) [Compound 3027] | 2080 | 
CN1CCC[C@]2(CN=C(N3CCc4ccccc4[C@@H]3c3ccc(F)c(F)c3)O2)C1 (stereo in doubt) [Compound 3029] | 4020 | 
CN1CCC[C@@]2(CN=C(N3CCc4ccccc4[C@@H]3c3ccc(F)c(F)c3)O2)C1 (stereo in doubt) [Compound 3030] | 9650 | 

Structure (SMILES) | EC50 (Mus musculus) [nM] | EC50 [nM]
CN1CCC[C@]2(CN=C(N3CCc4ccccc4[C@H]3c3ccc(F)c(F)c3)O2)C1 (stereo in doubt) [Compound 3031] | 4310 | 
CN1CCC[C@@]2(CN=C(N3CCc4ccccc4[C@H]3c3ccc(F)c(F)c3)O2)C1 (stereo in doubt) [Compound 3032] | 3430 | 
Fc1cc(F)cc([C@H]2c3ccccc3CCN2C2=NC[C@]3(CN4CCC3CC4)O2)c1 (stereo in doubt) [Compound 3037] | 1000 | 
Fc1cc(F)cc([C@@H]2c3ccccc3CCN2C2=NC[C@@]3(CN4CCC3CC4)O2)c1 (stereo in doubt) [Compound 3038] | 3910 | 
Fc1cc(F)cc([C@H]2c3ccccc3CCN2C2=NC[C@]3(CN4CCC3CC4)O2)c1 (stereo in doubt) [Compound 3039] |  | 1050
CN1CCC[C@]2(CN=C(N3CCc4ccccc4[C@@H]3c3cccc(F)c3F)O2)C1 (stereo in doubt) [Compound 3043] | 3860 | 
CN1CCC[C@@]2(CN=C(N3CCc4ccccc4[C@H]3c3cccc(F)c3F)O2)C1 (stereo in doubt) [Compound 3044] | 5000 | 
Fc1ccc([C@H]2c3ccccc3CCN2C2=NO[C@@]3(C2)CN2CCC3CC2)cc1 [Compound 3028, 2((S)-1-(4-fluorophenyl)-3,4-dihydroisoquinolin-2(1H)-yl)-4-4-azaspiro[bicyclo[2.2.2]octane-2,5oxazole]] | > 3160 | 
Fc1ccc([C@H]2c3ccccc3CCN2C2=NCC3(CNCCC3F)O2)cc1 (stereo partly drawn) [Compound 3035, 10-fluoro-2-((S)-1-(4-fluorophenyl)-3,4-dihydroisoquinolin-2(1H)-yl)-1-oxa-3,7-diazaspiro[4.5]dec-2-ene] | 620 | 
Fc1ccc([C@H]2c3ccccc3CCN2C2=NC[C@H](C34CCN(CC3)CC4)O2)cc1 [Compound 3047, 2-((S)-1-(4-fluorophenyl)-3,4-dihydroisoquinolin-2(1H)-yl)-5-(quinuclidin-4-yl)-4,5-dihydrooxazole] | > 10000 | 
Fc1ccc([C@H]2c3ccccc3CCN2C2=NC[C@@H](C34CCN(CC3)CC4)O2)cc1 [Compound 3048, 2-((S)-1-(4-fluorophenyl)-3,4-dihydroisoquinolin-2(1H)-yl)-5-(quinuclidin-4-yl)-4,5-dihydrooxazole] | 110 | 
Fc1ccc([C@H]2c3ccccc3CCN2C2=NC[C@@]3(CCNC3)O2)cc1 [Compound 3049] | 19 | 
Fc1ccc([C@H]2c3ccccc3CCN2C2=NC[C@@]3(CCCNC3)O2)cc1 [Compound 3051] | 980 | 
Fc1ccc([C@H]2c3ccccc3CCN2C2=NC[C@]3(CCCNC3)O2)cc1 [Compound 3052] | 440 | 
CN1CCCC2(COC(N3CCc4ccccc4[C@@H]3c3ccc(F)cc3)=N2)C1 (stereo partly shown) [Compound 3055] | 1770 | 
Fc1ccc([C@H]2c3ccccc3CCN2C2=NC3(CCNCC3)CO2)cc1 [Compound 3056, (S)-2-(1-(4-fluorophenyl)-3,4-dihydroisoquinolin-2(1H)-yl)-3-oxa-1,8-diazaspiro[4.5]dec-1-ene] | 110 | 
CN1CCC2(CC1)COC(N1CCc3ccccc3[C@@H]1c1ccc(F)cc1)=N2 [Compound 3058, (S)-2-(1-(4-fluorophenyl)-3,4-dihydroisoquinolin-2(1H)-yl)-8-methyl-3-oxa-1,8-diazaspiro[4.5]dec-1-ene] | 380 | 
CN1CCC2(CC1)CN=C(N1CCc3ccccc3[C@@H]1c1ccc(F)cc1)O2 [Compound 3059, (S)-2-(1-(4-fluorophenyl)-3,4-dihydroisoquinolin-2(1H)-yl)-8-methyl-1-oxa-3,8-diazaspiro[4.5]dec-2-ene] | 110 | 
Fc1ccc([C@H]2c3ccccc3CCN2C2=NCC3(CCNCC3)O2)cc1 [Compound 3060, (S)-2-(1-(4-fluorophenyl)-3,4-dihydroisoquinolin-2(1H)-yl)-1-oxa-3,8-diazaspiro[4.5]dec-2-ene] | 110 | 
N[C@H]1C[C@@]2(CN=C(N3CCc4ccccc4[C@@H]3c3ccc(F)cc3)O2)C1 [Compound 3061, (S)-6-(1-(4-fluorophenyl)-3,4-dihydroisoquinolin-2(1H)-yl)-5-oxa-7-azaspiro[3.4]oct-6-en-2-amine] | 115 | 
Fc1ccc([C@H]2c3ccccc3CCN2C2=NC[C@@H](C3CCNCC3)O2)cc1 [Compound 3067] | 309 | 
N[C@@H]1CC[C@@]2(COC(N3CCc4ccccc4[C@@H]3c3ccc(F)cc3)=N2)C1 [Compound 3082, (5S,7R)-2-((S)-1-(4-fluorophenyl)-3,4-dihydroisoquinolin-2(1H)-yl)-3-oxa-1-azaspiro[4.4]non-1-en-7-amine] | 160 | 
N[C@H]1CC[C@@]2(COC(N3CCc4ccccc4[C@@H]3c3ccc(F)cc3)=N2)C1 [Compound 3084, (5S,7S)-2-((S)-1-(4-fluorophenyl)-3,4-dihydroisoquinolin-2(1H)-yl)-3-oxa-1-azaspiro[4.4]non-1-en-7-amine] | 204 | 
O=C1N[C@]2(CCCNC2)N=C1N1CCc2ccccc2[C@@H]1c1ccc(F)cc1 [Compound 3147] | 50.1 | 
O=C1N[C@@]2(CCCNC2)N=C1N1CCc2ccccc2[C@@H]1c1ccc(F)cc1 [Compound 3148] | 85.3 | 
N[C@H]1C[C@@]2(COC(N3CCc4ccccc4[C@@H]3c3ccc(F)cc3)=N2)C1 [Compound 3162] | 639 | 
